{"source": "paper PMC12846677", "about": "(Viruses, 2025)", "key": {"HIV-1KIZ011 (CRF07_BC)": {"tested_on": "HIV-1KIZ011 (CRF07_BC)", "assay": "microbe, parasite or virus in culture", "conditions": "Human immunodeficiency virus 1, PBMC"}, "HIV-1IIIB [1]": {"tested_on": "HIV-1IIIB", "assay": "microbe, parasite or virus in culture", "type": "cell-based", "conditions": "Human immunodeficiency virus 1, MT4, MTT"}, "HIV-1IIIB [2]": {"tested_on": "HIV-1IIIB", "assay": "microbe, parasite or virus in culture", "conditions": "Human immunodeficiency virus 1, C8166, HIV-1IIIB"}, "[3]": {"assay": "Cytotoxicity MTT assay in C8166 cells", "type": "cell-based", "conditions": "human"}, "NL4-3IN-R263K": {"tested_on": "NL4-3IN-R263K", "assay": "microbe, parasite or virus in culture", "type": "cell-based", "conditions": "Human immunodeficiency virus 1"}, "HIV-1A17": {"tested_on": "HIV-1A17", "assay": "microbe, parasite or virus in culture", "conditions": "Human immunodeficiency virus 1, C8166"}, "HIV-1WAN (CRF01_AE)": {"tested_on": "HIV-1WAN (CRF01_AE)", "assay": "microbe, parasite or virus in culture", "conditions": "Human immunodeficiency virus 1, PBMC"}, "NL4-3": {"tested_on": "NL4-3", "assay": "microbe, parasite or virus in culture", "type": "cell-based", "conditions": "Human immunodeficiency virus 1, NL43; NL4-3, p24"}, "HIV-1IIIB [4]": {"tested_on": "HIV-1IIIB", "assay": "Combined antiviral activity assay (p24 ELISA, CompuSyn)", "type": "cell-based"}, "HIV-1IIIB [5]": {"tested_on": "HIV-1IIIB", "assay": "qPCR determination of Late-RT, 2-LTR and Alu-LTR in infected C8166 cells", "type": "cell-based", "conditions": "for Late-RT level versus positive control (PC) group: C8166, HIV-1IIIB MOI 0.5, 100 nM ACC017, 4-8 h; for 2-LTR level (nuclear entry): C8166, HIV-1IIIB MOI 0.5, 100 nM ACC017, 8, 12, 24 h; for Alu-LTR level (integrated provirus): C8166, HIV-1IIIB MOI 0.5, 100 nM ACC017, 24 h, nested PCR"}, "[6]": {"assay": "Cytotoxicity MTT assay in PBMCs", "type": "cell-based", "conditions": "human, peripheral blood mononuclear cells (PBMCs), PBMC"}, "[7]": {"assay": "Cytotoxicity MTT assay in MT4 cells", "type": "cell-based", "conditions": "human"}, "HIV-1IIIB [8]": {"tested_on": "HIV-1IIIB", "assay": "HIV-1IIIB-induced cytopathic effect (syncytia counting) in C8166 cells", "conditions": "Human immunodeficiency virus 1, C8166"}, "HIV-1DRACC017": {"tested_on": "HIV-1DRACC017", "assay": "microbe, parasite or virus in culture", "type": "cell-based", "conditions": "for EC50: Human immunodeficiency virus 1, HIV-1DRACC017, p24"}, "HIV-1_4755-5": {"tested_on": "HIV-1_4755-5", "assay": "microbe, parasite or virus in culture", "conditions": "Human immunodeficiency virus 1, C8166"}, "[9]": {"tested_on": "pNL4-3gp41(36G) V38A, N42T", "conditions": "C8166, p24"}, "HIV-1TC-1 (CRF01_AE)": {"tested_on": "HIV-1TC-1 (CRF01_AE)", "assay": "microbe, parasite or virus in culture", "conditions": "Human immunodeficiency virus 1, PBMC"}, "[10]": {"conditions": "p24 (Table 4, resistance study)"}}, "note": "Like-named read-outs stand apart in the source and are kept apart here.", "data": [{"smiles": "C[C@@H]1CCO[C@H]2Cn3cc(C(=O)NCc4ccc(F)cc4F)c(=O)c(O)c3C(=O)N12", "note": "[DTG, Dolutegravir]", "values": [{"measurement": "EC50", "setting": "HIV-1KIZ011 (CRF07_BC)", "result": "0.28 ± 0.03", "unit": "nM"}, {"measurement": "EC50", "setting": "HIV-1IIIB [1]", "result": "0.05144 ± 0.00014", "unit": "nM"}, {"measurement": "EC50", "setting": "HIV-1IIIB [2]; C8166, p24 (Table 1)", "result": "0.64 ± 0.07", "unit": "nM"}, {"measurement": "EC50", "setting": "HIV-1IIIB [2]; C8166, p24, 20% human serum", "result": "33.6 ± 5.9", "unit": "nM"}, {"measurement": "EC50", "setting": "HIV-1IIIB [2]; [10]", "result": "1.18 ± 0.15", "unit": "nM"}, {"measurement": "CC50 at 3 d", "setting": "[3]", "result": "20340 ± 70", "unit": "nM"}, {"measurement": "EC50", "setting": "NL4-3IN-R263K", "result": "32.2 ± 3.74", "unit": "nM"}, {"measurement": "EC50", "setting": "HIV-1A17", "result": "4.78 ± 5.13", "unit": "nM"}, {"measurement": "EC50", "setting": "HIV-1WAN (CRF01_AE)", "result": "8.23 ± 0.2", "unit": "nM"}, {"measurement": "EC50", "setting": "NL4-3", "result": "2.41 ± 0.43", "unit": "nM"}, {"measurement": "DRI Value ED75", "setting": "HIV-1IIIB [4]; combination ACC017 + DTG", "result": 1.40}, {"measurement": "DRI Value ED90", "setting": "HIV-1IIIB [4]; combination ACC017 + DTG", "result": 1.40}, {"measurement": "DRI Value ED95", "setting": "HIV-1IIIB [4]; combination ACC017 + DTG", "result": 1.60}, {"measurement": "DRI Value ED75", "setting": "HIV-1IIIB [4]; combination DTG + 3TC", "result": 3.00}, {"measurement": "DRI Value ED90", "setting": "HIV-1IIIB [4]; combination DTG + 3TC", "result": 4.01}, {"measurement": "DRI Value ED95", "setting": "HIV-1IIIB [4]; combination DTG + 3TC", "result": 4.98}, {"measurement": "DRI Value ED75", "setting": "HIV-1IIIB [4]; combination DTG + ACC007", "result": 3.00}, {"measurement": "DRI Value ED90", "setting": "HIV-1IIIB [4]; combination DTG + ACC007", "result": 4.13}, {"measurement": "DRI Value ED95", "setting": "HIV-1IIIB [4]; combination DTG + ACC007", "result": 5.21}, {"measurement": "DRI Value ED75", "setting": "HIV-1IIIB [4]; combination DTG + FTC + TAF", "result": 3.25}, {"measurement": "DRI Value ED90", "setting": "HIV-1IIIB [4]; combination DTG + FTC + TAF", "result": 4.37}, {"measurement": "DRI Value ED95", "setting": "HIV-1IIIB [4]; combination DTG + FTC + TAF", "result": 5.41}, {"measurement": "Late-RT level versus positive control (PC) group", "setting": "HIV-1IIIB [5]", "result": "no significant difference compared with the PC group"}, {"measurement": "2-LTR level (nuclear entry)", "setting": "HIV-1IIIB [5]", "result": "unable to block the nuclear entry process"}, {"measurement": "Alu-LTR level (integrated provirus)", "setting": "HIV-1IIIB [5]", "result": "significantly reduced"}, {"measurement": "CC50 at 7 d", "setting": "[6]", "result": 14600, "unit": "nM"}, {"measurement": "CC50 at 3 d", "setting": "[7]", "result": "24910 ± 10", "unit": "nM"}, {"measurement": "EC50", "setting": "HIV-1IIIB [8]", "result": "0.73 ± 0.02", "unit": "nM"}, {"measurement": "EC50", "setting": "HIV-1DRACC017", "result": "> 5000", "unit": "nM"}, {"measurement": "EC50", "setting": "HIV-1_4755-5", "result": "9.96 ± 2.78", "unit": "nM"}, {"measurement": "EC50", "setting": "[9]", "result": "1.95 ± 0.12", "unit": "nM"}, {"measurement": "EC50", "setting": "HIV-1TC-1 (CRF01_AE)", "result": "0.31 ± 0.18", "unit": "nM"}]}, {"smiles": "O=C1Nc2ccc(Cl)cc2[C@@](C#CC2CC2)(C(F)(F)F)O1", "note": "[EFV, Efavirenz]", "values": [{"measurement": "EC50", "setting": "HIV-1IIIB [2]; [10]", "result": "0.6 ± 0.18", "unit": "nM"}, {"measurement": "EC50", "setting": "NL4-3IN-R263K; read-out: EC50", "result": "1.62 ± 0.31", "unit": "nM"}, {"measurement": "EC50", "setting": "NL4-3", "result": "1.51 ± 0.48", "unit": "nM"}, {"measurement": "Late-RT level versus positive control (PC) group", "setting": "HIV-1IIIB [5]", "result": "significantly lower than that in the PC group"}, {"measurement": "2-LTR level (nuclear entry)", "setting": "HIV-1IIIB [5]", "result": "barely detected"}, {"measurement": "Alu-LTR level (integrated provirus)", "setting": "HIV-1IIIB [5]", "result": "almost undetectable"}, {"measurement": "EC50", "setting": "HIV-1DRACC017", "result": "1.24 ± 0.22", "unit": "nM"}, {"measurement": "FC (Fold Change) EC50 (HIV-1DRACC017)/EC50 (HIV-1IIIB)", "setting": "HIV-1DRACC017; p24", "result": 2.07}]}, {"smiles": "Nc1nc(=O)n([C@@H]2CS[C@H](CO)O2)cc1F", "note": "[FTC, Emtricitabine]", "values": [{"measurement": "DRI Value ED75", "setting": "HIV-1IIIB [4]; combination ACC017 + FTC + TAF", "result": 7.82}, {"measurement": "DRI Value ED90", "setting": "HIV-1IIIB [4]; combination ACC017 + FTC + TAF", "result": 12.57}, {"measurement": "DRI Value ED95", "setting": "HIV-1IIIB [4]; combination ACC017 + FTC + TAF", "result": 17.41}, {"measurement": "DRI Value ED75", "setting": "HIV-1IIIB [4]; combination DTG + FTC + TAF", "result": 7.15}, {"measurement": "DRI Value ED90", "setting": "HIV-1IIIB [4]; combination DTG + FTC + TAF", "result": 12.20}, {"measurement": "DRI Value ED95", "setting": "HIV-1IIIB [4]; combination DTG + FTC + TAF", "result": 17.77}]}, {"smiles": "CC(C)OC(=O)[C@H](C)N[P@](=O)(CO[C@H](C)Cn1cnc2c(N)ncnc21)Oc1ccccc1", "note": "[TAF, Tenofovir alafenamide]", "values": [{"measurement": "DRI Value ED75", "setting": "HIV-1IIIB [4]; combination ACC017 + FTC + TAF", "result": 4.78}, {"measurement": "DRI Value ED90", "setting": "HIV-1IIIB [4]; combination ACC017 + FTC + TAF", "result": 6.99}, {"measurement": "DRI Value ED95", "setting": "HIV-1IIIB [4]; combination ACC017 + FTC + TAF", "result": 8.96}, {"measurement": "DRI Value ED75", "setting": "HIV-1IIIB [4]; combination DTG + FTC + TAF", "result": 4.40}, {"measurement": "DRI Value ED90", "setting": "HIV-1IIIB [4]; combination DTG + FTC + TAF", "result": 6.33}, {"measurement": "DRI Value ED95", "setting": "HIV-1IIIB [4]; combination DTG + FTC + TAF", "result": 8.18}]}]}
